The text below walks through data of US11266712B2, “Antimicrobial peptides and methods of using the same” (Riptide Bioscience, Inc., priority 2018, dated 2022).

One experiment concerns S. aureus 29213. The experiment can be described thus: Resistance development, 30 serial passages at sub-MIC. In kind it is cell-based. The note with it: after 30 days / 30 serial passages. The method, then: (§1) Sub-inhibitory concentrations of RP557, gentamicin and clindamycin were incubated with P. aeruginosa 27853 and S. aureus 29213 for 24 hours. Bacteria showing growth in the highest concentration were re-passaged in fresh dilutions containing sub-minimum inhibitory concentration (MIC) levels of each component for 30 consecutive passages.
(§2) FIG. 4A to 4B. […] Sub-inhibitory concentrations of RP557, gentamicin and clindamycin were incubated with P. aeruginosa 27853 and S. aureus 29213 for 24 hours. Bacteria showing growth in the highest concentration were re-passaged in fresh dilutions containing sub-minimum inhibitory concentration (MIC) levels of each component for 30 consecutive passages; means are shown.

The next experiment concerns C. albicans (ATCC 44858). Kind of experiment: Rodent model of vulvovaginal candidiasis. In kind it is in vivo. The note with it: rat, oral fluconazole. The method, then:
FIG. 8A to 8B indicates topical treatment of exemplary peptide RP557 reduces rodent vaginal candidiasis. Effects of RP557, miconazole and oral fluconazole in a C. albicans vaginal infection rodent model. On Day 0, rats were inoculated intravaginally with C. albicans. RP557 and miconazole were administered twice daily (FIG. 8A). A separate group received oral fluconazole (FIG. 8B). Further details are provided in the experimental section.
RP557 was effective in eradicating C. albicans in a rodent model of vulvovaginal candidiasis (FIG. 8A-8B).
FIG. 8A to 8B. RP557 topical treatment reduces rodent vaginal candidiasis. Effects of RP557, miconazole and oral fluconazole in the C. albicans (ATCC 44858) vaginal infection rodent model. On Day 0, rats were inoculated intravaginally (IVG) with C. albicans at 1.46×10^7 CFU/rat. RP557 and miconazole at 20 mg/mL were administered IVG at 0.1 mL/rat twice daily at 8 hr intervals starting from 48 hr after infection for 3 days. CPUs were evaluated on Day 5 with limit of detection (LOD) 0.7 CFU/rat. Significant difference, compared to vehicle, determined by one-way ANOVA followed by Dunnett's test (*p<0.05, ****p<0.0001). A separate group receiving oral fluconazole; *p<0.05 versus 0.1 and 10 mg/kg fluconazole.

The test system of the next experiment is P. aeruginosa 27853. Kind of experiment: Resistance development, 30 serial passages at sub-MIC. The class given is cell-based. To be noted: after 30 days / 30 serial passages. The method, then:
as §1, §2

Regarding `CCC[C@@H]1C[C@@H](C(=O)N[C@@H]([C@H]2O[C@H](SC)[C@H](O)[C@@H](O)[C@H]2O)[C@H](C)Cl)N(C)C1` [clindamycin], the “growth at multiple of the MIC after 30 days” value in the experiment with S. aureus 29213 was 256 times the minimum inhibitory concentration (MIC).

On to `OC(Cn1cncn1)(Cn1cncn1)c1ccc(F)cc1F` [fluconazole], for which the “activity on fungal counts” value in the experiment on C. albicans (ATCC 44858) is reported as “minimal activity”.

gentamicin: the “growth at multiple of the MIC after 30 days” value in the experiment on P. aeruginosa 27853 is reported as 4096 times the minimum inhibitory concentration (MIC).
